10 compounds from ChEMBL document CHEMBL4715910, “Insights into non-peptide small-molecule inhibitors of the PD-1/PD-L1 interaction: Development and perspective” (Bioorg Med Chem, 2021) can be followed below.

Sequence of Programmed cell death protein 1/Programmed cell death 1 ligand 1 (Q15116 whole entry): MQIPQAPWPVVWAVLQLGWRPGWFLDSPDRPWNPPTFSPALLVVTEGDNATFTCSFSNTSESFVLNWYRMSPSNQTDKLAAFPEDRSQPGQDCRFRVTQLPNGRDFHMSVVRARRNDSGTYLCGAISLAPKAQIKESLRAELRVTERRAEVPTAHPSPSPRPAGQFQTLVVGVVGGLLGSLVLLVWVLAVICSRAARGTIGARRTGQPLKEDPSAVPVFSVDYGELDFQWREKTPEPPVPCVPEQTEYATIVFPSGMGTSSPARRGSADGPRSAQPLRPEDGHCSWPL
Sequence of Programmed cell death protein 1/Programmed cell death 1 ligand 1 (Q9NZQ7 whole entry): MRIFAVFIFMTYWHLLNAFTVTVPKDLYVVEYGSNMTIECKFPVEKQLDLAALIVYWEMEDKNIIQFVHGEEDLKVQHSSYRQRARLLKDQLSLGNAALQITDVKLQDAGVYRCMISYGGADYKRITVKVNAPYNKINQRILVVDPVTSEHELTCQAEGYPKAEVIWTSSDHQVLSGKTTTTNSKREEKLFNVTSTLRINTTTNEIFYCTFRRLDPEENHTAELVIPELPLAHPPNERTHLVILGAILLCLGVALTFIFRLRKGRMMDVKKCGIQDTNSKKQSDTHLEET
Sequence of Programmed cell death 1 ligand 1 (Homo sapiens) (Q9NZQ7 whole entry): as above

The first assay deals with Jurkat. Briefly: Cytotoxicity against human Jurkat T cells assessed as reduction in cell viability. Format: cell-based.
Consider `Cc1cc(CN[C@H](CO)C(=O)O)c(OCc2cccc(C#N)c2)cc1OCc1cccc(-c2ccc3c(c2)OCCO3)c1C`, for which the IC50 was below 100 nM.

A further assay addresses Programmed cell death protein 1/Programmed cell death 1 ligand 1 (Homo sapiens, UniProt Q15116+Q9NZQ7). Briefly: Inhibition of PD-1/PDL1 (unknown origin) by ELISA. Format: protein-complex assay.
`Cc1cc(C(=O)Nc2cccc(-c3ccccc3)c2C)ncc1CNCCO` gave an IC50 of at most 10 nM.

Compound `Cc1c(Nc2nccc3ccc(CNCCO)nc23)cccc1-c1ccccc1` showed an IC50 of at most 10 nM.

Compound `Cc1c(-c2ccccc2)cccc1-c1nc2cc(CN3CCCC[C@H]3C(=O)O)cc(C)c2o1` had an IC50 of at most 10 nM.

Regarding `Cc1c(-c2ccccc2)cccc1-c1nc2cc(CNCCO)ccc2o1`, the IC50 is at most 10 nM.

`Cc1c(Nc2nccc3c(CN4CCCCC4C(=O)O)ccnc23)cccc1-c1ccccc1` (stereo not given) showed an IC50 of at most 10 nM.

Consider `Cc1cc(CNCCO)ccc1OCc1cccc(-c2cccc(COc3ccc(CNCCO)cc3C)c2C)c1C`, for which the IC50 is at most 10 nM.

In turn, `Cc1cc(C(=O)Nc2cccc(-c3ccccc3)c2C)ncc1CN1CCCC[C@H]1C(=O)O` came in with an IC50 of at most 10 nM.

In turn, `Cc1c(COc2ccc(CN3CCCC[C@H]3C(=O)O)cc2Br)cccc1-c1cccc(COc2ccc(CN3CCCC[C@H]3C(=O)O)cc2Br)c1C` registered an IC50 of at most 10 nM.

A further assay concerns the target Programmed cell death 1 ligand 1 (Homo sapiens) (UniProt Q9NZQ7).
Description: Binding affinity to human PDL1 (18 to 134 residues) expressed in Escherichia coli BL21 (DE3) cells assessed as melting temperature by differential scanning fluorimetry (Rvb = 35.4 degreec)
On to `COc1nc(OCc2cccc(-c3ccccc3)c2C)ccc1CNCCNC(C)=O`, for which the Tm worked out at 48.4 °C.
